Measurements from patent US6316500A, “Aliphatically unsaturated hydroxy benzoates and preservative compositions thereof” (ISP Investments Inc., priority 1999, dated 2001).

Experiments:
Assay type in all cases: cell-based
Conditions in all cases: for number of colonies per milliliter, 28 days: reinoculated at 21 days
A. niger 16404 = assay: Activity test: preservative challenge test in emulsion, A. niger 16404
Protocol: (§1) The emulsion was prepared by separately mixing components in phase A and phase B at 75-80° C. for 15 minutes. The phases were then combined and mixed for another 10 minutes and cooled to 45° C. with stirring. Preservative was then added followed by citric acid to adjust pH to from abut 6.5 to 7.5. Stirring of the resulting mixture was continued until a temperature of 30° C. was reached. The activity tests were carried out using the following microorganisms: A. niger, B. cepacia, C. albicans, E. coli, P. aeruginosa and S. aureus. 50 g aliquots of the test emulsion containing various amounts of the preservative admixture as reported in Tables I-V were inoculated with approximately 10^7 -10^8 of the test organisms. The test samples then were stirred to disperse the challenge inoculum. The samples were incubated and assayed at 48 hours, 7, 14, 21 and 28 days. The assays were performed on 1 g, of the test sample by serially diluting 10^3 to 10^6 of the original concentration. The plating medium for bacteria was Letheen agar and for fungi it was low pH Mycophil agar with Tween 20. Each plated sample was incubated for 48 hours at 37° C. for bacteria, 5 days at 25° C. for mold and 3 days at 25° C. for fungi. After incubation, readings of the number of colonies per milliliter (cfu/ml) were made results were determined, as reported in associated Tables IA-VA. At 21 days the test product was reinoculated with half of the original inoculum.

B. cepacia 25416 = assay: Activity test: preservative challenge test in emulsion, B. cepacia 25416
Protocol: as §1

C. albicans 10231 = assay: Activity test: preservative challenge test in emulsion, C. albicans 10231
Protocol: as §1

E. coli 8739 = assay: Activity test: preservative challenge test in emulsion, E. coli 8739
Protocol: as §1

P. aeruginosa 9027 = assay: Activity test: preservative challenge test in emulsion, P. aeruginosa 9027
Protocol: as §1

S. aureus 6538 = assay: Activity test: preservative challenge test in emulsion, S. aureus 6538
Protocol: as §1

C#CCOC(=O)c1ccc(O)cc1O [Propargyl 2,4-Dihydroxybenzoate]
3500 cfu/ml: number of colonies per milliliter, 48 hr (A. niger 16404; 0.2% preservative in emulsion)
< 10 cfu/ml: number of colonies per milliliter, 7 days (A. niger 16404; 0.2% preservative in emulsion) | number of colonies per milliliter, 14 days (A. niger 16404; 0.2% preservative in emulsion) | number of colonies per milliliter, 21 days (A. niger 16404; 0.2% preservative in emulsion) | number of colonies per milliliter, 28 days (A. niger 16404; 0.2% preservative in emulsion) | number of colonies per milliliter, 48 hr (B. cepacia 25416; 0.2% preservative in emulsion) | number of colonies per milliliter, 7 days (B. cepacia 25416; 0.2% preservative in emulsion) | number of colonies per milliliter, 14 days (B. cepacia 25416; 0.2% preservative in emulsion) | number of colonies per milliliter, 21 days (B. cepacia 25416; 0.2% preservative in emulsion) | number of colonies per milliliter, 28 days (B. cepacia 25416; 0.2% preservative in emulsion) | number of colonies per milliliter, 7 days (C. albicans 10231; 0.2% preservative in emulsion) | number of colonies per milliliter, 14 days (C. albicans 10231; 0.2% preservative in emulsion) | number of colonies per milliliter, 21 days (C. albicans 10231; 0.2% preservative in emulsion) | number of colonies per milliliter, 28 days (C. albicans 10231; 0.2% preservative in emulsion) | number of colonies per milliliter, 48 hr (E. coli 8739; 0.2% preservative in emulsion) | number of colonies per milliliter, 7 days (E. coli 8739; 0.2% preservative in emulsion) | number of colonies per milliliter, 14 days (E. coli 8739; 0.2% preservative in emulsion) | number of colonies per milliliter, 21 days (E. coli 8739; 0.2% preservative in emulsion) | number of colonies per milliliter, 28 days (E. coli 8739; 0.2% preservative in emulsion) | number of colonies per milliliter, 48 hr (P. aeruginosa 9027; 0.2% preservative in emulsion) | number of colonies per milliliter, 7 days (P. aeruginosa 9027; 0.2% preservative in emulsion) | number of colonies per milliliter, 14 days (P. aeruginosa 9027; 0.2% preservative in emulsion) | number of colonies per milliliter, 21 days (P. aeruginosa 9027; 0.2% preservative in emulsion) | number of colonies per milliliter, 28 days (P. aeruginosa 9027; 0.2% preservative in emulsion) | number of colonies per milliliter, 48 hr (S. aureus 6538; 0.2% preservative in emulsion) | number of colonies per milliliter, 7 days (S. aureus 6538; 0.2% preservative in emulsion) | number of colonies per milliliter, 14 days (S. aureus 6538; 0.2% preservative in emulsion) | number of colonies per milliliter, 21 days (S. aureus 6538; 0.2% preservative in emulsion) | number of colonies per milliliter, 28 days (S. aureus 6538; 0.2% preservative in emulsion)
540 cfu/ml: number of colonies per milliliter, 48 hr (C. albicans 10231; 0.2% preservative in emulsion)

C#CCOC(=O)c1ccc(O)c(O)c1 [Propargyl 3,4-Dihydroxybenzoate]
< 10 cfu/ml: number of colonies per milliliter, 48 hr (A. niger 16404; 0.5% preservative in emulsion) | number of colonies per milliliter, 7 days (A. niger 16404; 0.5% preservative in emulsion) | number of colonies per milliliter, 14 days (A. niger 16404; 0.5% preservative in emulsion) | number of colonies per milliliter, 21 days (A. niger 16404; 0.5% preservative in emulsion) | number of colonies per milliliter, 28 days (A. niger 16404; 0.5% preservative in emulsion) | number of colonies per milliliter, 48 hr (B. cepacia 25416; 0.5% preservative in emulsion) | number of colonies per milliliter, 7 days (B. cepacia 25416; 0.5% preservative in emulsion) | number of colonies per milliliter, 14 days (B. cepacia 25416; 0.5% preservative in emulsion) | number of colonies per milliliter, 21 days (B. cepacia 25416; 0.5% preservative in emulsion) | number of colonies per milliliter, 28 days (B. cepacia 25416; 0.5% preservative in emulsion) | number of colonies per milliliter, 48 hr (C. albicans 10231; 0.5% preservative in emulsion) | number of colonies per milliliter, 7 days (C. albicans 10231; 0.5% preservative in emulsion) | number of colonies per milliliter, 14 days (C. albicans 10231; 0.5% preservative in emulsion) | number of colonies per milliliter, 21 days (C. albicans 10231; 0.5% preservative in emulsion) | number of colonies per milliliter, 28 days (C. albicans 10231; 0.5% preservative in emulsion) | number of colonies per milliliter, 48 hr (E. coli 8739; 0.5% preservative in emulsion) | number of colonies per milliliter, 7 days (E. coli 8739; 0.5% preservative in emulsion) | number of colonies per milliliter, 14 days (E. coli 8739; 0.5% preservative in emulsion) | number of colonies per milliliter, 21 days (E. coli 8739; 0.5% preservative in emulsion) | number of colonies per milliliter, 28 days (E. coli 8739; 0.5% preservative in emulsion) | number of colonies per milliliter, 48 hr (P. aeruginosa 9027; 0.5% preservative in emulsion) | number of colonies per milliliter, 7 days (P. aeruginosa 9027; 0.5% preservative in emulsion) | number of colonies per milliliter, 14 days (P. aeruginosa 9027; 0.5% preservative in emulsion) | number of colonies per milliliter, 21 days (P. aeruginosa 9027; 0.5% preservative in emulsion) | number of colonies per milliliter, 28 days (P. aeruginosa 9027; 0.5% preservative in emulsion) | number of colonies per milliliter, 48 hr (S. aureus 6538; 0.5% preservative in emulsion) | number of colonies per milliliter, 7 days (S. aureus 6538; 0.5% preservative in emulsion) | number of colonies per milliliter, 14 days (S. aureus 6538; 0.5% preservative in emulsion) | number of colonies per milliliter, 21 days (S. aureus 6538; 0.5% preservative in emulsion) | number of colonies per milliliter, 28 days (S. aureus 6538; 0.5% preservative in emulsion)
